In US9572882B2, “Compositions and methods for improving cardiovascular function” (RiboCor, INC., priority 2000, dated 2017):
Entries after “also recorded” stand apart in the source; their conditions may differ. Where two headings read alike, the source gives them in different places.

Key:
congestive heart failure = conditions: 4 weeks of supplementation (Azuma et al 1983); cited from earlier work
[1] = tested on: patients with chronic coronary artery disease with stable angina pectoris and chronic heart failure, class II and III; experiment: Transthoracic echocardiography in double-blinded, randomized, crossover clinical study of ribose vs placebo; format: in vivo, human; conditions: oral
From the text: (§1) A double-blinded, randomized, crossover clinical study was initiated to determine whether patients with cardiovascular disease could find a ribose benefit at lower, safer doses. Patients with known chronic coronary artery disease with stable angina pectoris and chronic heart failure, class II and III (New York Classification, NYHA) were selected for the study. […] All patients were being treated with nitrates, molsidim and beta blockers. Three patients were also on diltiazem and an additional three on trapidil. Medications were not altered during the study. Exclusion criteria included patients <18 years of age, those with severe concurrent disease (renal failure, diabetes mellitus, neoplasia), evidence of hyperthyroidism and inability to follow the protocol.
The study consisted of two treatment periods, three weeks in duration. Initially, either ribose or placebo (dextrose) was administered three times a day with meals. Five grams of either ribose of or placebo was dissolved in approximately eight ounces of fluid shortly before administration. Following the initial treatment period, the patients were given no ribose or placebo treatment for one week as a washout period. The patients were then given the alternate treatment for three weeks for the crossover phase of the study.
Measured objectives parameters of systolic and diastolic function were assessed with transthoracic echocardiography. Subjectively, quality of life using the SF36 form, and physical function (exercise tolerance) were assessed. All of the above parameters were assessed at pre- and post-treatment in both arms of the study.
Each echocardiographic assessment was performed by the same clinical individual and accumulated data were analyzed by two cardiologists in a blinded manner, with a consensus establishing a final result. All studies were conducted with commercially available equipment (System V, GE, Norway). To allow off-line quantitative analysis of the echocardiographic data, studies were recorded on videotape with selected cine-loops and velocity spectra digitally transferred to a Macintosh G4 computer (Apple Computers, CA) for subsequent analysis. Software provided by the manufacturer (Echopac®, GE, Norway) was used for data evaluation.
Each echocardiographic assessment was performed transthoracically and a 1.7/3.4 MHZ harmonic transducer was used with the patient examined in the left lateral decubitus position. A one-lead electrocardiogram was recorded continuously during echocardiographic assessment. The M-Mode left atrial dimension was measured at end-systole in the parasternal long-axis view and left ventricular ejection fraction was determined according to the recommendations of the North American Society of Echocardiography. In addition, left atrial volume was determined using the Simpson's rule in the 4 chamber view. Transmitral Doppler inflow velocities were recorded from the apical four-chamber view with the sample volume positioned between the tips of the mitral leaflets during quiet respiration.
The parameters derived from the transmitral velocity spectra were: peak velocity of the early (E) and atrial filling (A) waves, the corresponding velocity time integrals (VTIE and VTIA and the percentage of atrial contribution to total left ventricular filling. The deceleration slope of the E wave was also measured. The percentage of atrial contribution to total left ventricular filling was determined by dividing the VTIA by the total diastolic velocity time integral. The results of five consecutive heart cycles were averaged in each patient to obtain a justified value.
Analysis of variance for repeated measures (ANOVA) was used for the analysis of serial changes of continuous parameters within and between the randomized, assigned treatment arms, i.e. ribose vs placebo. Further comparison were subject to Bonferroni correction. In all cases, a p value s 0.05 was considered statistically significant.

[2] = tested on: patients with chronic coronary artery disease and chronic heart failure; experiment: Semi-upright bicycle exercise test in the crossover study; format: in vivo, human; conditions: beginning vs end of the treatment period
From the text: as §1, with “protocol. The study consisted of two treatment periods, three weeks in duration. Initially, either ribose or placebo (dextrose) was administered three times a day with meals. Five grams of either ribose of or placebo was dissolved in approximately eight ounces of fluid shortly before administration. Following the initial treatment period, the patients were given no ribose or placebo treatment for one week as a washout period. […] Rate pressure product (RPP) was calculated using systolic blood pressure times heart rate and expressed in RPP units.” for “protocol.”

[3] = tested on: subject with borderline blood pressure; experiment: Blood pressure in one subject with borderline hypertension given ribose; format: in vivo, human
From the text: As shown in Example 1, treatment with ribose improves diastolic cardiac function. Since hypertension is accompanied by left ventricular dysfunction, it is expected that the administration of ribose to patients experiencing hypertension with result in a benefit. One subject has been tested. Their blood pressure has been tested at borderline values of 130/90. Following daily administration of ribose at 5-10 grams per day, their blood pressure was lowered to as low as 108/78.

[4] = tested on: patients with cardiovascular disease; athletes; conditions: cited from earlier work
[5] = tested on: patients with chronic coronary artery disease and chronic heart failure; experiment: Quality of life (SF 36 form) and physical function in the crossover study; format: in vivo, human; conditions: oral, 5 g three times a day for three weeks
From the text: as §1, with “protocol. The study consisted of two treatment periods, three weeks in duration. Initially, either ribose or placebo (dextrose) was administered three times a day with meals. […] Measured objectives parameters of systolic and diastolic function were assessed with transthoracic echocardiography. Subjectively, quality of life using the SF36 form, and physical function (exercise tolerance) were assessed. All of the above parameters were assessed at pre- and post-treatment in both arms of the study. Quality of life was assessed in each patient using the SF 36 form. […]” for “protocol.”

plasma homocysteine = conditions: cited from earlier work
[6] = tested on: patients with heart failure; patients with angina; conditions: cited from earlier work
[7] = 5 g three times a day for three weeks
[8] = 5 g three times a day for three weeks, p ≦ .005 vs dextrose placebo

SMILES: NCCS(=O)(=O)O [taurine]
- dyspnea, palpitation, crackles, edema, and New York Heart Association functional class (congestive heart failure): highly significant improvement

SMILES: O=C[C@H](O)[C@H](O)[C@H](O)CO [Ribose, D-Ribose]
- atrial contribution to left ventricular filling as compared to placebo [1, 7]: higher
- deceleration time of the E wave as compared to placebo [1, 7]: significant shorter
- ejection fraction (EF) [1, 7]: 51.0 ± 7.3%
- left atria volume as compared to placebo [1, 7]: significantly smaller
- atrial contribution (Ac) ([1]; 5 g three times a day for three weeks, p < .01 vs dextrose placebo): 45.3 ± 9.2 &
- deceleration time of the E wave (Edc) [1, 8]: 193.5 ± 45.9 ms
- left ventricular systolic volume (LVVs) [1, 8]: 64.4 ± 24.8 mL
- stroke volume index (SVI) [1, 8]: 2.63 ± .57 ml/body mass index
- diastolic cardiac function ([1]; relatively short term, severe coronary artery disease and congestive heart failure): significantly improved
- mean maximal attained exercise level [2]: not changed
- pressure-lowering effects in further studies ([3]; further studies, expected): expected to confirm the pressure-lowering effects
- blood pressure after ribose ([3]; one subject, borderline values of 130/90 before, 5-10 grams per day daily): 108/78
- benefit to patients with cardiovascular disease ([4]; 60 grams daily in four 15 gram doses for three days (Pliml 1992)): benefited
- side effects ([4]; 60 grams daily in four 15 gram doses): hypoglycemia with concomitant dizziness, nausea and sweating; also recorded: abdominal distress and diarrhea
- treadmill performance of angina patients ([4]; orally administered high doses (Pliml et al 1992)): increased
- power output of athletes on exercise bikes ([4]; supplemental ribose (U.S. Pat. No. 6,159,942)): greater
- overall score of the quality of life index ([5]; SF 36 form): significant improvement; also recorded: enhanced
- physical function [5]: significant improvement

SMILES: Nc1nc2ncc(CNc3ccc(C(=O)N[C@@H](CCC(=O)O)C(=O)O)cc3)nc2c(=O)[nH]1 [Folic acid]
- reduction of plasma homocysteine levels (plasma homocysteine; 250 pg/d dose (Brouwer et al. 1999)): 11%
- reduction of plasma homocysteine levels (plasma homocysteine; 300 pg/d in healthy individuals over 5 weeks (Mansoor)): 20%
- reduction of plasma homocysteine (plasma homocysteine; 300 pg/day plus 120 mg/day of vitamin B6 (Mansoor)): 32%
- reduction of plasma homocysteine levels (plasma homocysteine; 500 pg/d dose (Brouwer et al. 1999)): 22%

SMILES: N=C(N)NCCC[C@H](N)C(=O)O [arginine, L-arginine]
- benefits for patients with heart failure ([6]; 5.6 to 12.6 g/day supplemental (Rector et al 1996)): increased blood flow, increased distances in a 6-minute walk test, and improved arterial compliance
- exercise capacity in patients with angina ([6]; oral, 6 g/day for 3 days (Ceremuzynski et al 1997)): improved
